# Values quoted from earlier work in patent publication US20130195996A1, “METHOD OF PRODUCING PLEURODESIS” (CAREFUSION 2200, INC., priority 2010, published 2013).
# How the values were obtained:
# [1] = known methods, high dosages such as 10% concentration (typically 200 mg AgNO3), single dosage
# [2] = test system: rabbits; details: single dosage administration of 0.1% silver nitrate (Marchi et al. 2005)
# [3] = test system: rabbits
# [4] = 2 mL of 0.25% silver nitrate (Vargas et al. 2001)
compound,measurement,setting,value
O=[N+]([O-])[O-].[Ag+] [silver nitrate],adverse effects associated with injection into the pleural space,[1],"severe pain, fever, and relatively large amount of effusion"
same,pleural inflammation,[2],relatively intense pleural inflammation
same,persistence of pleurodesis result,[3]; [4],persists for at least a year
same,pleurodesis result,[3]; [4],relatively superior pleurodesis result
same,pleurodesis,[3]; intrapleural injection of 0.5% silver nitrate (Texeira et al. 2003),significant pleurodesis
same,sclerosing effects,[3]; single intrapleural injection of 0.25% silver nitrate (Texeira et al. 2003),no sclerosing effects
